Assays:
[1] = system: retinal ganglion cells (RGCs)
Experimental: Glutamate-induced toxicity: C57Bl/6J mice were anesthetized by intraperitoneal (i.p.) injection of ketamine (80 mg/kg; Fort Dodge Laboratories, Fort Dodge, Iowa) and xylazine (16 mg/kg; Vitamed, Israel). Their right eyes were punctured with a 27 gauge needle in the upper part of the sclera and a hamilton syringe with a 30-gauge needle was inserted as far as the vitreal body. Each mouse was injected with a total volume of 1 μl saline containing L-glutamate (100 nmol). Mice in one group were also injected intravenously (i.v.) with 5 μg of CSPG-DSs in 200 μl saline (Schori, 2001).
Labeling of retinal ganglion cells: Mice were anesthetized as described above and placed in a stereotactic device. The skull was exposed and the bregma identified and marked. […] A window was drilled in the scalp above the designated coordinates in the right and left hemispheres. […]
Assessment of retinal ganglion cell survival: Retinas were examined for labeled retinal ganglion cells (RGCs) by fluorescence microscopy. Labeled cells from four to six fields of identical size (0.076 mm^2) were counted. […] Cells were counted under the fluorescence microscope (magnification ×800) by observers blinded to the treatment received by the mice. The average number of RGCs per field was calculated for each retina. The number of RGCs in the contralateral (uninjured) eye was also counted and served as an internal control.

IFN-γ = IFN-γ secretion by anti-CD3-activated T cells, ELISA; format: cell-based, human; settings: 2 h pretreatment, then anti-CD3 activation 24 h
Experimental: Assay of IFN-γ secretion. Human T cells were purified and maintained in culture (RPMI containing 10% FCS, 1% pyruvate, 1% glutamine, 1% antibiotics, in a humidified atmosphere of 7% CO2in air), and the cells were activated for 2 h with the indicated concentrations of CSPG-DS. In order to stimulate the cells to secrete cytokines, they were replated (1×10^6 cells in 0.5 ml culture medium per well) in 24-well plates precoated with 1 μg/ml immobilized anti-CD3 mAb (non-tissue-culture grade). After 24 h the supernatants were collected and their IFN-γ contents determined by ELISA, using anti-IFN-γ mAb (Pharmingen, San Diego, Calif.) according to the manufacturer's instructions.

SOCS-3 = test: Western blot of SOCS-3 in T cells; format: cell-based, human; settings: T cells pretreated with CSPG-DS, relative to untreated T cells
Experimental: Western blot analysis of T-cell nuclear extracts. Purified T cells (5×10^6) were preincubated for 2 h with different concentrations of CSPG-DS. The cells were then replated at the same CSPG-DS concentration on 24-well plates pre-coated for 24 h with anti-CD3 mAb. The T cells were lysed in 10 mM HEPES, 1.5 mM MgCl2, 1 mM dithiothreitol, 1 mM PMSF, and 0.5% Nonidet P-40 (buffer A). The lysates were incubated on ice for 10 min and centrifuged at 2000 rpm for 10 min at 4° C. The supernatants (cytoplasmic extracts) were transferred and the pellets (nuclei) were suspended in buffer containing 30 mM HEPES, 450 mM NaCl, 25% glycerol, 0.5 mM EDTA, 6 mM dithiothreitol, 12 mM MgCl2 1 mM PMSF, 10 μg/ml leupeptin, 10 μg/ml pepstatin, and 1% phosphatase inhibitor cocktail (buffer B), and the suspension was incubated on ice for 30 min. The lysates were cleared by centrifugation (30 min, 14×10^3 rpm, 4° C.), and the resulting supernatants were analyzed for protein content. Sample buffer was added, the mixture was boiled, and the samples containing equal amounts of proteins were separated on 10% SDS-PAGE gel and transferred to nitrocellulose membranes. […]

TNF-α = TNF-α secretion by anti-CD3-activated T cells, ELISA; format: cell-based, human; settings: 2 h pretreatment, then anti-CD3 activation 24 h
IL-4 and IL-13 = test: RT-PCR of IL-4 and IL-13 mRNA in activated T cells; format: cell-based, human; settings: 2 h pretreatment, anti-CD3 activation 3 h; similar after 6 or 12 h
Experimental: RNA purification, RT-PCR, and CDNA synthesis. After pretreatment with the indicated concentrations of CSPG-DS for 2 h, […], lysed with TRI reagent (MRC, Cincinnati, Ohio), and total cellular RNA was purified from lysates using the RNeasy kit (Qiagen, Hilden, Germany) according to the manufacturer's instructions. RNA was converted to cDNA using SuperScript II (Promega, Madison, Wis.), as recommended by the manufacturer. The expression of specific mRNAs was assayed by RT-PCR, using the messageScreen™ Human Th1/Th2 Cytokine Set 1 Multiplex PCR® kits (BioSource International, Camarillo, Calif.), according to the manufacturer's instructions.

human T cells = format: cell-based
Experimental: T-cell apoptosis: T cells (2×10^6 cells/ml) were incubated for 2 h with the indicated concentrations of CSPG-DS in RPMI medium containing 10% FCS, and then plated on 24-well plates (non-tissue-culture grade) precoated with anti-CD3 mAb (1 μg/ml; overnight) and cultured for 72 h. The percentage of cells undergoing apoptosis was determined using the annexin V-detection assay (Bender MedSystem, San Bruno, Calif.). The cells were incubated for 10 min in the dark at room temperature in 200 μl of buffer containing FITC-conjugated human annexin V ([…]; Bender MedSystem, Propidium iodide (10 μl) was added to each sample, and the percentage of cells undergoing apoptosis was analyzed by FACS® at 525 nm using CELLQuest Software. Cells that stained positively for annexin V and negatively for propidium iodide corresponded to the apoptotic cells.

SMILES: CC(=O)N[C@H]1C(O)O[C@H](COS(=O)(=O)O)[C@H](O)[C@@H]1O[C@@H]1OC(C(=O)O)=C[C@H](O)[C@H]1O (stereo partly drawn) [CSPG-DS, 2-acetoamido-2-deoxy-3-O-(β-D-gluco-4-enepyranosyluronic acid)-6-O-sulfo-D-galactose]
- neuronal survival in the absence of glutamate ([1]; intravitreal injection of CSPG-DSs, no glutamate): no effect
- number of surviving RGCs per mm2 ([1]; mice, intravitreal toxic glutamate, single i.v. injection of sulfated CSPG-DSs (5 μg), assessed 1 week later, mean±SEM): 1965±166 per mm2
- secretion of IFN-γ (IFN-γ): significant reduction
- SOCS-3 level (SOCS-3): increase
- secretion of TNF-α (TNF-α): significant reduction
- mRNA levels of Th2-associated cytokines IL-4 and IL-13 (IL-4 and IL-13): not affected
- viability of the T cells (apoptosis) (human T cells): did not significantly affect
